Consider three compounds from patent publication US20190255073A1, “ESTERS OF 3-POLYAMINE DERIVATIVES OF BILE ACIDS FOR THE TREATMENT OF INFECTIONS” (VIRBAC, priority 2016, published 2019).

≈ marks a conversion by molar mass, not a printed value. Read-outs that look alike come from different tables or passages of the source.

Experiment [1] has as its system S. aureus ATCC25923. Briefly: MIC determination by microplate dilution, S. aureus human strain. The settings on record: Staphylococcus aureus, ATCC25923, Gram-positive, Mueller-Hinton medium, 24 h, 37° C. The class given is cell-based, Staphylococcus aureus. A digest of the protocol: (§1)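 OD620 read-out after 24 h at 37 °C. Mueller-Hinton broth, 0.5 cascade dilution of test compound, wells seeded to OD 0.01. Stock 5 mg/mL in DMSO/MeOH 50/50; duplicate runs.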

The subject of experiment [2] is S. aureus (340). In words: MIC determination by microplate dilution, S. aureus animal strain. The class given is cell-based, Staphylococcus aureus. The settings on record: Staphylococcus aureus, Gram-positive, Mueller-Hinton medium, 24 h, 37° C. Summed up:
as §1

In experiment [3] the test system is S. intermedius (1051997). Briefly: MIC determination by microplate dilution, S. intermedius animal strain. The class given is cell-based, Staphylococcus intermedius. The following applies: Staphylococcus intermedius, Gram-positive, Mueller-Hinton medium, 24 h, 37° C. Summed up:
as §1

Experiment [4] relates to E. faecalis ATCC29212. In words: MIC determination by microplate dilution, E. faecalis human strain. The class given is cell-based, Enterococcus faecalis. The settings on record: Enterococcus faecalis, ATCC29212, Gram-positive, Mueller-Hinton medium, 24 h, 37° C. Summed up: as §1
Experiment [5] concerns E. coli ATCC28922. Briefly: MIC determination by microplate dilution, E. coli human strain. The class given is cell-based, Escherichia coli. The following applies: Escherichia coli, ATCC28922, Gram-negative, Mueller-Hinton medium, 24 h, 37° C. A digest of the protocol: as §1
Experiment [6] concerns E. coli (1956). Briefly: MIC determination by microplate dilution, E. coli animal strain. The class given is cell-based, Escherichia coli. The following applies: Escherichia coli, Gram-negative, Mueller-Hinton medium, 24 h, 37° C. Summed up: as §1
The test system of experiment [7] is P. aeruginosa ATCC27853. In words: MIC determination by microplate dilution, P. aeruginosa human strain. The class given is cell-based, Pseudomonas aeruginosa. The settings on record: Pseudomonas aeruginosa, ATCC27853, Gram-negative, Mueller-Hinton medium, 24 h, 37° C. Summed up:
as §1

In experiment [8] the test system is P. aeruginosa (1051575). In words: MIC determination by microplate dilution, P. aeruginosa animal strain. The following applies: Pseudomonas aeruginosa, Gram-negative, Mueller-Hinton medium, 24 h, 37° C. The class given is cell-based, Pseudomonas aeruginosa. A digest of the protocol:
as §1

Experiment [9] deals with CHO-K1 cells. In words: WST1 cytotoxicity test on CHO-K1 cells. The class given is cell-based, Chinese hamster. The settings on record: Cricetulus griseus. Summed up: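 CHO-K1 cells seeded 24 h, then exposed to increasing compound concentrations in duplicate for 24 h at 37 °C, 5% CO2. Viability by WST-1 reduction (20 min, 37 °C), absorbance at 450 nm. IC50 = concentration reducing viability by 50%, from nonlinear regression of dose-response.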
For orientation: Tetrazolium dyes change colour on reduction, which living cells bring about.

In experiment [10] the test system is P. aeruginosa (1051575). In words: Potentiation of the doxycycline activity at 2 μg/mL. The class given is cell-based, Pseudomonas aeruginosa. The settings on record: in combination with doxycycline 2 μg/mL; 24 h, 37°.
The test system of experiment [11] is C. albicans. In words: Antifungal activity, cascade microdilution, C. albicans. The class given is cell-based, Candida albicans. The settings on record: Candida albicans, 24 h, read-out: IC50 (μg/mL) C. albicans. (In broth dilution the organism is exposed to a series of concentrations in liquid medium.)
Experiment [12] relates to A. niger. In words: Antifungal activity, cascade microdilution, A. niger. The class given is cell-based. The settings on record: Aspergillus niger, 24 h, read-out: IC50 (μg/mL) A. niger. On the procedure: 1) Preparation of the Preculture
A negative control (2 mL of sterile Mueller Hinton MH culture medium)
A positive control (1980 μL of culture medium+20 μL of yeast or fungal suspension) from a thawed biological strain (the biological strains are stored at −80° C. in glycerol).
The tubes were incubated at 37° C. for 24 hours at 100 rpm.
The chemical compounds to be tested were prepared at a concentration of 5 mg/mL (in the form of the hydrochloride in water).
2) Preparation of the Microplate for the Determination of the Minimum Inhibitory Concentration (MIC)
The MIC is obtained by using the cascade microdilution method in sterile 96-well plates. 100 μL of MH culture medium are first placed in each well, and 8 μL of the solution (5 mg/mL) of the test molecule are then added to the first wells. The volume is made up with medium to obtain a total volume of 200 μL in these wells. Serial dilution is then performed by taking 100 μL from the first well, and so on successively from well to well. 100 μL of inoculate containing 2-6×10^5 CFU of yeast or fungi are then added to each well. Certain wells are reserved for positive and negative controls.
3) Reading of the Results
After incubation, an optical density (OD) reading was taken in an iEMS plate spectrophotometer at 620 nm. Calculation of the minimum inhibitory concentration (MIC) was performed.

Experiment [13] deals with P. aeruginosa (PAO1). In words: MIC of doxycycline on P. aeruginosa PAO1. The class given is cell-based. The settings on record: Pseudomonas aeruginosa; doxycycline alone; Gram-negative strain P. aeruginosa (PAO1). As for the experimental part: On the Gram-negative strain of P. aeruginosa (PAO1), doxycycline has an MIC of 40 μg/mL.
The mark [14] stands for this setting: CHO-K1, 24 h, read-out: IC50 (μg/mL) CHO.
[15] abbreviates: CHO-K1, read-out: IC50 (μg/mL) CHO.

For `COC(=O)CC[C@@H](C)[C@H]1CCC2C3C(CC[C@@]21C)[C@@]1(C)CC[C@H](NCCCN(CCCN)CCCN)CC1C[C@H]3O` (stereo partly drawn) [(38), methyl 3β-(tris(3-aminopropyl)amine)chenodeoxycholate], the MIC in experiment [1] is 14 µg/mL (≈ 24.3 µM); in experiment [2], 14 µg/mL (≈ 24.3 µM); in experiment [3], 29 µg/mL (≈ 50.3 µM); in [4], 3.5 µg/mL (≈ 6.07 µM); in [5] it was 28 µg/mL (≈ 48.5 µM); in experiment [6], 14 µg/mL (≈ 24.3 µM). For the same compound, the MIC in experiment [7] came to 28 µg/mL (≈ 48.5 µM); in experiment [8], 14 µg/mL (≈ 24.3 µM). The IC50 was found to be 17 µg/mL (≈ 29.5 µM) in experiment [9] (setting [14]), 17 µg/mL (≈ 29.5 µM) in experiment [9] (setting [15]), 115 µg/mL (≈ 199 µM) in [11] and 4 µg/mL (≈ 6.93 µM) in experiment [12]. Moreover, the “MIC - P. aeruginosa (1051575): content of compound of formula (I) to restore the doxycycline activity (at 2 μg/mL)” value in experiment [10] stood at 2 µg/mL.

For `CC(C)OC(=O)CC[C@@H](C)[C@H]1CCC2C3C(CC[C@@]21C)[C@@]1(C)CC[C@H](NCCCNCCCNCCCN)CC1C[C@H]3O` (stereo partly drawn) [Compound (10), isopropyl 3β-norsperminochenodeoxycholate], the minimum inhibitory concentration (MIC) in [1] worked out at 4 µg/mL (≈ 6.61 µM); in [2], 2 µg/mL (≈ 3.31 µM); in experiment [3], 0.8 µg/mL (≈ 1.32 µM); in experiment [4], 8 µg/mL (≈ 13.2 µM); in [5], 16 µg/mL (≈ 26.4 µM); in [6] it was 10 µg/mL (≈ 16.5 µM). For the same compound, inhibition of growth in experiment [8] (MIC) required 4 µg/mL (≈ 6.61 µM). Further, the IC50 was 85 µg/mL (≈ 141 µM) in [9] (setting [14]), 85 µg/mL (≈ 141 µM) in experiment [9] (setting [15]), 2 µg/mL (≈ 3.31 µM) in experiment [11] and 4 µg/mL (≈ 6.61 µM) in experiment [12]. The “MIC - P. aeruginosa (1051575): content of compound of formula (I) to restore the doxycycline activity (at 2 μg/mL)” value in experiment [10] was determined as 2 µg/mL.

As to `C[C@H]1c2cccc(O)c2C(=O)C2=C(O)[C@]3(O)C(=O)C(C(N)=O)=C(O)[C@@H](N(C)C)[C@@H]3[C@@H](O)[C@@H]21` [doxycycline], the minimum inhibitory concentration (MIC) in experiment [13] stood at 40 µg/mL.

Broadly, the MIC is the smallest concentration in the dilution series that meets the test's criterion for growth inhibition.
